This passage reports Kd results from US12612410B2 (CHILDREN'S HOSPITAL MEDICAL CENTER, priority 2020, dated 2026).

SMILES strings stand for the structures. Positions count from the first letter of the chain named. pKd: −log10 of the molar value.

One assay has as its target T1, FLT3 D835V (Homo sapiens, UniProt P36888, D835V).
T1 construct: host or cells: E. coli BL21-derived host (T7 phage) or HEK-293
T1 sequence (P36888 27-993 D835V): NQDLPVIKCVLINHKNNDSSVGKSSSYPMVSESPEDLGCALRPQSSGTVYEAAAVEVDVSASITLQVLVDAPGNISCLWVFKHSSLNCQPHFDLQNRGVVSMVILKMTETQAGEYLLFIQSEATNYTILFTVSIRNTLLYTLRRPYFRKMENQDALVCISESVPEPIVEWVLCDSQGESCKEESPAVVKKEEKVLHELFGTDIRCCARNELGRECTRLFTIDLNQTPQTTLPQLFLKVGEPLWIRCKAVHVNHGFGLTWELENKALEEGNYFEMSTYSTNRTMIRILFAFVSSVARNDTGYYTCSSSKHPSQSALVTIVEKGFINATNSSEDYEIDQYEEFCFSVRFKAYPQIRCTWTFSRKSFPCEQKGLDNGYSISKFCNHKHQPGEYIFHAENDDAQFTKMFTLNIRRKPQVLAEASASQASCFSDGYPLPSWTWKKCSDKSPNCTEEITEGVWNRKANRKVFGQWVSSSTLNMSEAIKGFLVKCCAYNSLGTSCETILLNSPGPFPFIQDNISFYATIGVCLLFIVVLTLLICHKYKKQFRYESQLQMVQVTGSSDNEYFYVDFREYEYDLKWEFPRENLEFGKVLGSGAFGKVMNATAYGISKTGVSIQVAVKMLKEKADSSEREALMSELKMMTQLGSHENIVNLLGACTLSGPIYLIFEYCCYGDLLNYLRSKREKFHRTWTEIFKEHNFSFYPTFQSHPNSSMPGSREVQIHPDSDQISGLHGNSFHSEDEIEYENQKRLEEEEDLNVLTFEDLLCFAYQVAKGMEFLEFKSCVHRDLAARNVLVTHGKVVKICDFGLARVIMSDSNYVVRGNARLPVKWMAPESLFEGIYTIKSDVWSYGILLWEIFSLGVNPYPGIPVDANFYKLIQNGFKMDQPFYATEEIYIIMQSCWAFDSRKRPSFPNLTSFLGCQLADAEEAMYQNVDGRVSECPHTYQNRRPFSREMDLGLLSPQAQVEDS
In words: DiscoverX KINOMEscan competition binding, FLT3 D835V. The text has this: (§1) Kinase binding data were obtained for various exemplary compounds prepared according to Examples 1-24 using the DiscoverX KINOMVIEscan® active site-directed competition binding site-directed assay protocol described below. […] As a result, the data report thermodynamic interaction affinities (Kd values), rather than IC50 values that are dependent on ATP concentrations. The assay uses a DNA-tagged version of the protein kinase, and an immobilized ligand bound to a solid support. Compounds that directly or indirectly prevent kinase binding to the immobilized ligand reduce the amount of kinase captured on the solid support, which is detected using an ultra-sensitive qPCR method. Affinity constants reported from the assay have been reported to be independent of the immobilized ligand used that is coupled to the solid support (See supplemental information in Fabian, M. A. et. al., (2005) Nat. Biotechnol. 23, 329-336; Wodicka, L. M. et. al., (2010) Chem. Biol. 17, 1241-1249.)
(§2) Kinase-tagged T7 phage strains were prepared in an E. coli host derived from the BL21 strain. E. coli were grown to log-phase and infected with T7 phage and incubated with shaking at 32° C. until lysis. The lysates were centrifuged and filtered to remove cell debris. The remaining kinases were produced in HEK-293 cells and subsequently tagged with DNA for qPCR detection. Streptavidin-coated magnetic beads were treated with biotinylated small molecule ligands for 30 minutes at room temperature to generate affinity resins for kinase assays. The liganded beads were blocked with excess biotin and washed with blocking buffer (SeaBlock (Pierce), 1% BSA, 0.05% Tween 20, 1 mM DTT) to remove unbound ligand and to reduce non-specific binding. Binding reactions were assembled by combining kinases, liganded affinity beads, and test compounds in 1× binding buffer (20% SeaBlock, 0.17×PBS, 0.05% Tween 20, 6 mM DTT). Test compounds were prepared as 111× stocks in 100% DMSO. Kds were determined using an 11-point 3-fold compound dilution series with three DMSO control points. All compounds for Kd measurements are distributed by acoustic transfer (non-contact dispensing) in 100% DMSO. The compounds were then diluted directly into the assays such that the final concentration of DMSO was 0.9%. All reactions were performed in polypropylene 384-well plates. Each was a final volume of 0.02 mL. The assay plates were incubated at room temperature with shaking for 1 hour and the affinity beads were washed with wash buffer (1×PBS, 0.05% Tween 20). The beads were then re-suspended in elution buffer (1×PBS, 0.05% Tween 20, 0.5 μM nonbiotinylated affinity ligand) and incubated at room temperature with shaking for 30 minutes. The kinase concentration in the eluates was measured by qPCR.
(§3) Binding constants (Kds) were calculated with a standard dose-response curve using the Hill equation. The Hill Slope was set to −1. Curves were fitted using a non-linear least square fit with the Levenberg-Marquardt algorithm.

The next assay has as its target T2, FLT3 K663Q (Homo sapiens, UniProt P36888, K663Q).
T2 construct: host or cells: E. coli BL21-derived host (T7 phage) or HEK-293
T2 sequence (P36888 27-993 K663Q): T1 sequence (P36888 27-993 D835V) with K637Q, V809D
Briefly: DiscoverX KINOMEscan competition binding, FLT3 K663Q.
From the text: as §1, §2, §3

Consider `CC1(c2cn3c(-c4cccc(N[C@H]5CNC[C@@H]5F)n4)cnc3cn2)CC1` [Compound 1, N-((3S,4S)-4-fluoropyrrolidin-3-yl)-6-(6-(1-methylcyclopropyl)imidazo[1,2-a]pyrazin-3-yl)pyridin-2-amine], for which the pKd (usually −log10 of the Kd, conventionally taken in molar units) was 10.82 at FLT3 D835V and 9.62 at FLT3 K663Q.
On the same counts, the results for `CC1(c2cn3c(-c4cccc(N[C@@H]5CCNC5)n4)cnc3cn2)CC1` [Compound 3, (R)-6-(6-(1-methylcyclopropyl)imidazo[1,2-a]pyrazin-3-yl)-N-(pyrrolidin-3-yl)pyridin-2-amine] are 10.64 and 9.66.
Turning to `CC1(c2cn3c(-c4cccc(N[C@H]5CNCC56CC6)n4)cnc3cn2)CC1` [Compound 5, (R)-N-(6-(6-(1-methylcyclopropyl)imidazo[1,2-a]pyrazin-3-yl)pyridin-2-yl)-5-azaspiro[2.4]heptan-7-amine], the negative logarithm of the Kd (pKd) on FLT3 D835V is 10.89; at FLT3 K663Q, 9.74.
As to `FC(F)(F)C1(c2cn3c(-c4cccc(N[C@@H]5CCNC5)n4)cnc3cn2)CC1` [Compound 10, (R)-N-(pyrrolidin-3-yl)-6-(6-(1-(trifluoromethyl)cyclopropyl)imidazo[1,2-a]pyrazin-3-yl)pyridin-2-amine], the pKd was 10.08 on FLT3 D835V and 9.35 at FLT3 K663Q.
Consider `FC(F)c1cn2c(-c3cccc(N[C@H]4CNC[C@@H]4F)n3)cnc2cn1` [Compound 16, 6-(6-(difluoromethyl)imidazo[1,2-a]pyrazin-3-yl)-N-((3S,4S)-4-fluoropyrrolidin-3-yl)pyridin-2-amine], for which the pKd is 10.18 at FLT3 D835V and 8.85 at FLT3 K663Q.
In the same order, the values of `FC(F)c1cn2c(-c3cccc(N[C@H]4CNCC[C@@H]4F)n3)cnc2cn1` [Compound 25, 6-(6-(difluoromethyl)imidazo[1,2-a]pyrazin-3-yl)-N-((3S,4S)-4-fluoropiperidin-3-yl)pyridin-2-amine] are 10.44 and 9.23.
In the same order, the values of `CC(C)(O)c1cn2c(-c3cccc(N[C@@H]4CCCNC4)n3)cnc2cn1` [Compound 30, (R)-2-(3-(6-(piperidin-3-ylamino)pyridin-2-yl)imidazo[1,2-a]pyrazin-6-yl)propan-2-ol] are 9.44 and 9.08.
In the same order, the values of `CC(C)(O)c1cn2c(-c3cccc(N[C@H]4CNCC[C@@H]4F)n3)cnc2cn1` [Compound 31, 2-(3-(6-(((3S,4S)-4-fluoropiperidin-3-yl)amino)pyridin-2-yl)imidazo[1,2-a]pyrazin-6-yl)propan-2-ol] are 9.77 and 8.62.
`FC(F)(F)COc1cn2c(-c3cccc(N[C@@H]4CCNC4)n3)cnc2cn1` [Compound 38, (R)-N-(pyrrolidin-3-yl)-6-(6-(2,2,2-trifluoroethoxy)imidazo[1,2-a]pyrazin-3-yl)pyridin-2-amine]: the pKd at FLT3 D835V is 9.92; on FLT3 K663Q, 8.64.
In the same order, the values of `F[C@H]1CNC[C@@H]1Nc1cccc(-c2cnc3cnc(C4CC4)cn23)n1` [Compound 50, 6-(6-cyclopropylimidazo[1,2-a]pyrazin-3-yl)-N-((3S,4S)-4-fluoropyrrolidin-3-yl)pyridin-2-amine] are 10.82 and 9.41.
On the same counts, the results for `Cn1cc(-c2cn3c(-c4cccc(N[C@H]5CNC[C@@H]5F)n4)cnc3cn2)cn1` [Compound 52, N-((3S,4S)-4-fluoropyrrolidin-3-yl)-6-(6-(1-methyl-1H-pyrazol-4-yl)imidazo[1,2-a]pyrazin-3-yl)pyridin-2-amine] are 10.96 and 9.09.
